Results: patent US20120041026A1, “(R)-4-((4-((4-(TETRAHYDROFURAN-3-YLOXY)BENZO[D]ISOXAZOL-3-YLOXY)METHYL)PIPERIDIN-1-YL)METHYL)TETRAHYDRO-2H-PYRAN-4-OL, A PARTIAL AGONIST OF 5-HT4 RECEPTORS” (Pfizer Inc., priority 2010, published 2012)
Where two headings read alike, the source gives them in different places. Marks after values point to notes of the source that are not given here.

Assays:
[1] = Brain Penetration Assay (plasma and brain drug levels by LC/MS/MS); details: rat, 5 mg/kg subcutaneous; for Brain AUC / Plasma AUC: 0.5-4 h post-dose; for Brain:Plasma ratio: ratio of AUCs
Protocol: (§1) Blood samples were collected via cardiac puncture after euthanization with CO2 at 0.5, 1, 2, and 4 h post-dose. Samples were placed in EDTA tubes and kept on ice. Whole brain was collected via decapitation. Brain samples were immediately stored in dry ice. Blood samples were spun down to collect plasma. Plasma and brain samples were stored at −20° C. until analysis. LC/MS/MS was used to measure plasma and brain drug levels.

human 5-HT4d [2] = target: T1, human 5-HT4d (Homo sapiens, UniProt Q13639); assay: Agonist-induced cAMP elevation in human 5-HT4d transfected HEK293 cells, 96 well format; type: cell-based; details: normalized to 1,000 nM serotonin; for % IA (intrinsic activity, % agonist effect) RT: RT incubation, plate format not marked
T1 construct: expressed in transfected cells; host or cells: HEK293
Protocol: Agonist-induced cAMP elevation in human 5-HT4d transfected HEK293 cells, 96 well format: Human 5-HT4(d) transfected HEK293 cells were established in-house. The cells were grown at 37° C. and 5% CO2 in DMEM supplemented with 10% FCS, 20 mM HEPES (pH 7.4), 200 μg/mL hygromycin B (Gibco), 100 units/mL penicillin and 100 μg/mL streptomycin. The cells were grown to 60-80% confluence. On the previous day before treatment with compounds, dialyzed FCS (Gibco) was substituted for normal and the cells were incubated overnight. […] The cells were harvested with PBS/1 mM EDTA, centrifuged and washed with PBS. At the beginning of the assay, cell pellet was resuspended in DMEM supplemented with 20 mM HEPES, 10 μM pargyline (Sigma) and 1 mM 3-isobutyl-1-methylxanthine (Sigma) at the concentration of 1.6×10^5 cells/mL and left for 15 min at RT or 37° C. […] After incubation for 15 min at RT or 37° C., 1% Triton X-100 was added to stop the reaction (25 μL/well) and the plates were left for 30 min at RT. Homogenous time-resolved fluorescence-based cAMP (Schering) detection was made according to the manufacturer's instruction. […] Data was analyzed based on the ratio of fluorescence intensity of each well at 620 nm and 665 nm followed by cAMP quantification using cAMP standard curve. Enhancement of cAMP production elicited by each compound was normalized to the amount of cAMP produced by 1,000 nM serotonin (Sigma). Intrinsic activity is reported in Table 1, below, as % agonist effect.

[3] = human, 1 uM, pH 7.4
Protocol: (§2) Human Liver Microsome Stability Assay: Human liver microsomes (HLMs) are used in a metabolic stability assay to determine the NADPH-dependent in vitro apparent intrinsic metabolic clearance (CLint,app) of a drug (primarily mediated by P450 metabolism). In the HLM assay, test compounds are incubated with HLMs & an NADPH regenerating system in 100 mM potassium phosphate buffer (pH 7.4). The HLMs used in this assay are prepared as a pool from many individual donors. The concentration of HLMs and test compound are 0.71 mg protein/ml and 1 uM, respectively. The reaction is started by the addition of microsomes and buffer to compound. At 0, 5, 10, 20, 30, and 60 minutes, the sample is crashed with ACN/IS (3 times the incubation volume), spun at 4° C. and 3500 rpm for 10 minutes. A matrix and 60 minute w/o NADPH sample are also incubated for 60 minutes serving as negative and positive controls. The matrix sample contains buffer, microsomes, and NADPH (no compound); where as, the 60 minute w/o NADPH sample contains buffer, microsomes, and compound (no NADPH). After centrifugation, the supernatant is removed from the sample, combined with equal parts of water, and stored in the refrigerator until analysis. Drug levels are quantified by mass spectrometry. Clearance is frequently expressed as an extraction ratio (Er) which is calculated as hepatic clearance/hepatic blood flow (range 0-1).

[4] = system: THLE-2 (transformed human liver epithelial) cells; assay: THLE assay (cell viability by cellular ATP); type: cell-based; details: read-out: THLE IC50
Protocol: THLE assay: The THLE assay is predictive of general cell health and measures cell depletion in a human cell line of hepatic origin. THLE-2 (transformed human liver epithelial) cells were obtained from ATCC(CRL-2706 or CRL-10149) and cultured according to ATCC's recommendation. Media consisted of basal medium (BEGM Bullet Kit, Lonza Cat #CC-3170), supplemented with 10% fetal bovine serum (Sigma Cat #F4135) and 2.5 ng/L hEFG (BD Biosciences Cat #356052) and 700 ng/L phosphoethanolamine (Sigma Cat #p-0503). Cells were cultured in T175 human fibronectin/collagen/bovine serum albumin coated flasks. For each experiment, cells were plated onto 384 well plates (custom order, BD Biosciences Cat #359298) at a cell density of 2.5×10^3/well in a total medium volume of 25 μL/well. Plates were incubated for 24 h at 37° C., 5% CO2. […]
Following the 72 h exposure to test compounds, cell viability in each well was determined by measuring the concentration of cellular ATP using the Lonza Vialight™ Plus Cell Proliferation/Cytoxicity Kit (Lonza cat: LT07-121) according to the manufacturer's protocol. The ATP concentration was determined by reading luminescence using a Wallac Envision plate reader (Perkin Elmer, Waltham, Mass., USA). Percent of viable cells relative to no-drug treated controls was determined for each well. […]

[5] = rat, in vivo
Protocol: as §1

in vivo = details: male, Sprague-Dawley, rat, sc, 5 mg/kg
Protocol: as §1

[6] = Human Liver Microsome Stability Assay; details: HLM 0.71 mg protein/ml, 1 uM compound, NADPH; hepatic clearance/hepatic blood flow (range 0-1)
Protocol: as §2

human 5-HT4d [7] = target: T1, human 5-HT4d; assay: Agonist-induced cAMP elevation in human 5-HT4d transfected HEK293 cells, 384 well format; type: cell-based; details: normalized to 1 uM serotonin
Protocol: The cells were grown to 60-80% confluence. […] Intrinsic activity is reported in Table 1, below, as % agonist effect.

T1 sequence (Q13639 1-360 isoform Q13639-3): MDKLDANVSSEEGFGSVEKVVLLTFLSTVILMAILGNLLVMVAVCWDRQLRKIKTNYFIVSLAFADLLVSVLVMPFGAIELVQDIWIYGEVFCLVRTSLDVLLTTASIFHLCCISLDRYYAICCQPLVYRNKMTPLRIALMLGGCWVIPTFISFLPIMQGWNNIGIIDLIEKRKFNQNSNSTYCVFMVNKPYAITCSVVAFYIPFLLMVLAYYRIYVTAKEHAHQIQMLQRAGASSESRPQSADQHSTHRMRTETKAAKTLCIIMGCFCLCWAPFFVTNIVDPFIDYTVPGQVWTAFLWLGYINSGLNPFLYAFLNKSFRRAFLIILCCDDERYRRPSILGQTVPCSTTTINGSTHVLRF

O=C(O)C1(CN2CCC(COc3noc4cccc(OCC(F)(F)F)c34)CC2)CCOCC1 [B]
Brain AUC [1]: 160 ng·h/g | Plasma AUC [1]: 4.09 µg·h/mL | Brain:Plasma ratio [1]: 0.039 | % IA (intrinsic activity, % agonist effect) 37° C., 96-well format (human 5-HT4d [2]): 103^a % | % IA (intrinsic activity, % agonist effect) RT (human 5-HT4d [2]): 56.3%

OC1(CN2CCC(COc3noc4cccc(O[C@@H]5CCOC5)c34)CC2)CCOCC1 [Compound X, (R)-4-((4-((4-(tetrahydrofuran-3-yloxy)benzo[d]isoxazol-3-yloxy)methyl)piperidin-1-yl)methyl)tetrahydro-2H-pyran-4-ol]
Er (extraction ratio) [3]: 0.62 | IC50 ([4]; Homo sapiens, THLE-2, 72 h): > 300 µM | Brain AUC ([5]; male, Sprague-Dawley, sc, 5 mg/kg): 1790 ng·h/g | brain penetration (in words) [5]: freely crosses the blood brain barrier | AUC (in vivo): 1.76 µg·h/mL

CC(C)COc1cccc2onc(OCC3CCN(CC4(C(=O)O)CCCC4)CC3)c12 [D]
Er (extraction ratio) [6]: 0.36 | % IA (intrinsic activity, % agonist effect) 37° C., 96-well format (human 5-HT4d [2]): 95.0^a % | % IA (intrinsic activity, % agonist effect) RT (human 5-HT4d [2]): 36.0%

CC(C)COc1cccc2onc(OCC3CCN(CC4(C(=O)O)CCOCC4)CC3)c12 [F]
Brain AUC [1]: 319 ng·h/g | Plasma AUC [1]: 2.95 µg·h/mL | Brain:Plasma ratio [1]: 0.108 | Er (extraction ratio) [6]: 0.28 | % IA (intrinsic activity, % agonist effect) 37° C., 96-well format (human 5-HT4d [2]): 118^a % | % IA (intrinsic activity, % agonist effect) RT (human 5-HT4d [2]): 55.5%

O=C(O)C1(CN2CCC(COc3noc4cccc(OCC5(CO)CCCC5)c34)CC2)CCOCC1 [G]
Er (extraction ratio) [6]: <0.27 | % IA (intrinsic activity, % agonist effect) 37° C., 96-well format (human 5-HT4d [2]): 79.0^a % | % IA (intrinsic activity, % agonist effect) RT (human 5-HT4d [2]): 33.0%

OC1(COc2cccc3onc(OCC4CCN(CC5(O)CCOCC5)CC4)c23)CCCC1 [H]
Er (extraction ratio) [6]: 0.83 | % IA (intrinsic activity, % agonist effect) 37° C., 96-well format (human 5-HT4d [2]): 104% | % IA (intrinsic activity, % agonist effect) RT (human 5-HT4d [2]): 30.8% | % IA (intrinsic activity, % agonist effect) 37° C., 384-well format (human 5-HT4d [7]): 50%

CC(C)COc1cccc2onc(OCC3CCN(CC4(O)CCOCC4)CC3)c12 [J]
IC50 ([4]; 72 h exposure, concentration range 300-0.058 μM): 56 µM | Er (extraction ratio) [6]: 0.78 | % IA (intrinsic activity, % agonist effect) RT (human 5-HT4d [2]): 39.1% | % IA (intrinsic activity, % agonist effect) 37° C., 384-well format (human 5-HT4d [7]): 55^b %
